What was measured:
[1] = test system: K-562; assay: panel of 60 human tumor cell lines, growth inhibition (Leukemia); details: K-562
[2] = test system: MDA-MB-435; assay: panel of 60 human tumor cell lines, growth inhibition (Melanoma); details: MDA-MB-435
[3] = test system: SF-268; assay: panel of 60 human tumor cell lines, growth inhibition (CNS Cancer); details: SF-268
[4] = test system: SF-539; assay: as above; details: SF-539
[5] = test system: COLO 205; assay: panel of 60 human tumor cell lines, growth inhibition (Colon Cancer); details: COLO 205
[6] = test system: HCT-116; assay: as above; details: HCT-116
[7] = test system: SW-620; assay: as above; details: SW-620
[8] = test system: 786-0; assay: panel of 60 human tumor cell lines, growth inhibition (Renal Cancer); details: 786-0
[9] = test system: ACHN; assay: as above
[10] = test system: UO-31; assay: as above; details: UO-31
[11] = test system: HS 578T; assay: panel of 60 human tumor cell lines, growth inhibition (Breast Cancer)
[12] = test system: BT-549; assay: as above
[13] = test system: T-47D; assay: as above; details: T-47D
[14] = test system: IGROV1; assay: panel of 60 human tumor cell lines, growth inhibition (Ovarian Cancer); details: IGROVI
[15] = test system: OVCAR-5; assay: as above; details: OVCAR-5
[16] = test system: OVCAR-8; assay: as above; details: OVCAR-8
[17] = test system: NCI/ADR-RES; assay: as above
[18] = test system: NCI-H522; assay: panel of 60 human tumor cell lines, growth inhibition (Non-Small Cell Lung Cancer); details: NCI-H522

C=C1C(=O)O[C@H]2[C@H]1CC/C(COC(=O)NCCN1CCCCC1)=C\CC[C@@]1(C)O[C@@H]21 [JVM 2-13]
GI50 [1]: 2.79 µM
TGI [1]: 9.11 µM
Percent Growth ([1]; Log10 Concentration −4.0): −42%
Percent Growth ([1]; Log10 Concentration −5.0): −4%
Percent Growth ([1]; Log10 Concentration −6.0): 93%
Percent Growth ([1]; Log10 Concentration −7.0): 95%
Percent Growth ([1]; Log10 Concentration −8.0): 100%
GI50 [2]: 4.13 µM
TGI [2]: 16.7 µM
Percent Growth ([2]; Log10 Concentration −4.0): −93%
Percent Growth ([2]; Log10 Concentration −5.0): 27%
Percent Growth ([2]; Log10 Concentration −6.0): 87%
Percent Growth ([2]; Log10 Concentration −7.0): 97%
Percent Growth ([2]; Log10 Concentration −8.0): 95%
GI50 [3]: 9.67 µM
TGI [3]: 24.4 µM
Percent Growth ([3]; Log10 Concentration −4.0): −78%
Percent Growth ([3]; Log10 Concentration −5.0): 49%
Percent Growth ([3]; Log10 Concentration −6.0): 96%
Percent Growth ([3]; Log10 Concentration −7.0): 104%
Percent Growth ([3]; Log10 Concentration −8.0): 97%
GI50 [4]: 3.23 µM
TGI [4]: 13.1 µM
Percent Growth ([4]; Log10 Concentration −4.0): −78%
Percent Growth ([4]; Log10 Concentration −5.0): 10%
Percent Growth ([4]; Log10 Concentration −6.0): 91%
Percent Growth ([4]; Log10 Concentration −7.0): 91%
Percent Growth ([4]; Log10 Concentration −8.0): 92%
GI50 [5]: 1.79 µM
TGI [5]: 1.73 µM
Percent Growth ([5]; Log10 Concentration −4.0): −75%
Percent Growth ([5]; Log10 Concentration −5.0): −67%
Percent Growth ([5]; Log10 Concentration −6.0): 90%
Percent Growth ([5]; Log10 Concentration −7.0): 101%
Percent Growth ([5]; Log10 Concentration −8.0): 92%
GI50 [6]: 2.72 µM
TGI [6]: 11.4 µM
Percent Growth ([6]; Log10 Concentration −4.0): −92%
Percent Growth ([6]; Log10 Concentration −5.0): 5%
Percent Growth ([6]; Log10 Concentration −6.0): 84%
Percent Growth ([6]; Log10 Concentration −7.0): 96%
Percent Growth ([6]; Log10 Concentration −8.0): 95%
CC50 ([6]; read-out: LC50): 37 µM
GI50 [7]: 2.72 µM
TGI [7]: 12.3 µM
Percent Growth ([7]; Log10 Concentration −4.0): −74%
Percent Growth ([7]; Log10 Concentration −5.0): 7%
Percent Growth ([7]; Log10 Concentration −6.0): 83%
Percent Growth ([7]; Log10 Concentration −7.0): 96%
Percent Growth ([7]; Log10 Concentration −8.0): 100%
GI50 [8]: 3.95 µM
TGI [8]: 17.3 µM
Percent Growth ([8]; Log10 Concentration −4.0): −74%
Percent Growth ([8]; Log10 Concentration −5.0): 23%
Percent Growth ([8]; Log10 Concentration −6.0): 90%
Percent Growth ([8]; Log10 Concentration −7.0): 89%
Percent Growth ([8]; Log10 Concentration −8.0): 86%
GI50 [9]: 2.76 µM
TGI [9]: 12.3 µM
Percent Growth ([9]; Log10 Concentration −4.0): −80%
Percent Growth ([9]; Log10 Concentration −5.0): 8%
Percent Growth ([9]; Log10 Concentration −6.0): 83%
Percent Growth ([9]; Log10 Concentration −7.0): 97%
Percent Growth ([9]; Log10 Concentration −8.0): 94%
GI50 [10]: 3.34 µM
TGI [10]: 16.1 µM
Percent Growth ([10]; Log10 Concentration −4.0): −81%
Percent Growth ([10]; Log10 Concentration −5.0): 21%
Percent Growth ([10]; Log10 Concentration −6.0): 82%
Percent Growth ([10]; Log10 Concentration −7.0): 91%
Percent Growth ([10]; Log10 Concentration −8.0): 91%
GI50 [11]: 18.4 µM
TGI ([11]; HS 57BT): 66 µM
Percent Growth ([11]; HS 57BT, Log10 Concentration −4.0): −16%
Percent Growth ([11]; HS 57BT, Log10 Concentration −5.0): 74%
Percent Growth ([11]; HS 57BT, Log10 Concentration −6.0): 89%
Percent Growth ([11]; HS 57BT, Log10 Concentration −7.0): 87%
Percent Growth ([11]; HS 57BT, Log10 Concentration −8.0): 92%
TGI [12]: 18.3 µM
Percent Growth ([12]; 81-549, Log10 Concentration −4.0): −96%
Percent Growth ([12]; 81-549, Log10 Concentration −5.0): 34%
Percent Growth ([12]; 81-549, Log10 Concentration −6.0): 89%
Percent Growth ([12]; 81-549, Log10 Concentration −7.0): 88%
Percent Growth ([12]; 81-549, Log10 Concentration −8.0): 83%
GI50 [13]: 2.38 µM
TGI [13]: 12.6 µM
Percent Growth ([13]; Log10 Concentration −4.0): −65%
Percent Growth ([13]; Log10 Concentration −5.0): 7%
Percent Growth ([13]; Log10 Concentration −6.0): 76%
Percent Growth ([13]; Log10 Concentration −7.0): 88%
Percent Growth ([13]; Log10 Concentration −8.0): 82%
GI50 [14]: 5.59 µM
TGI [14]: 22.9 µM
Percent Growth ([14]; Log10 Concentration −4.0): −58%
Percent Growth ([14]; Log10 Concentration −5.0): 33%
Percent Growth ([14]; Log10 Concentration −6.0): 101%
Percent Growth ([14]; Log10 Concentration −7.0): 106%
Percent Growth ([14]; Log10 Concentration −8.0): 105%
GI50 [15]: 10.6 µM
TGI [15]: 24.2 µM
Percent Growth ([15]; Log10 Concentration −4.0): −86%
Percent Growth ([15]; Log10 Concentration −5.0): 53%
Percent Growth ([15]; Log10 Concentration −6.0): 82%
Percent Growth ([15]; Log10 Concentration −7.0): 87%
Percent Growth ([15]; Log10 Concentration −8.0): 84%
GI50 [16]: 5.07 µM
TGI [16]: 20 µM
Percent Growth ([16]; Log10 Concentration −4.0): −75%
Percent Growth ([16]; Log10 Concentration −5.0): 32%
Percent Growth ([16]; Log10 Concentration −6.0): 93%
Percent Growth ([16]; Log10 Concentration −7.0): 97%
Percent Growth ([16]; Log10 Concentration −8.0): 100%
GI50 [17]: 31.2 µM
TGI [17]: >100 µM
Percent Growth ([17]; Log10 Concentration −4.0): 4%
Percent Growth ([17]; Log10 Concentration −5.0): 95%
Percent Growth ([17]; Log10 Concentration −6.0): 103%
Percent Growth ([17]; Log10 Concentration −7.0): 107%
Percent Growth ([17]; Log10 Concentration −8.0): 103%
GI50 [18]: 1.12 µM
TGI [18]: 2.86 µM
Percent Growth ([18]; Log10 Concentration −4.0): −65%
Percent Growth ([18]; Log10 Concentration −5.0): −67%
Percent Growth ([18]; Log10 Concentration −6.0): 56%
Percent Growth ([18]; Log10 Concentration −7.0): 105%
Percent Growth ([18]; Log10 Concentration −8.0): 99%
